pIC50: −log10 of the molar value.
Legend:
[1] = Selectivity index, ratio of IC50 for cytotoxicity against human HEK293T cells assessed to IC50 for antiplasmodial activity against synchronized ring stage Plasmodium falciparum 3D7 infected in human erythrocytes; type: toxicity, cell-based; conditions: read-out: Ratio IC50
HEK-293T = assay: Cytotoxicity against human HEK293T cells assessed as reduction in cell viability incubated for 72 hrs by cell titer glo assay; type: cell-based
Plasmodium falciparum [2] = assay: Antiplasmodial activity against synchronized ring stage Plasmodium falciparum Dd2 infected in human erythrocytes assessed as reduction in parasite growth incubated for 72 hrs by Giemsa staining based light microscopic method; type: functional, organism-based; conditions: Dd2, Erythrocyte
Plasmodium falciparum [3] = assay: Antiplasmodial activity against synchronized ring stage Plasmodium falciparum 3D7 infected in human erythrocytes assessed as reduction in parasite growth incubated for 72 hrs by Giemsa staining based light microscopic method; type: functional, organism-based; conditions: 3D7, Erythrocyte
[4] = Selectivity index, ratio of IC50 for cytotoxicity against human HepG2 cells assessed to IC50 for antiplasmodial activity against synchronized ring stage Plasmodium falciparum 3D7 infected in human erythrocytes; type: toxicity, cell-based; conditions: read-out: Ratio IC50
HepG2 = assay: Cytotoxicity against human HepG2 cells assessed as reduction in cell viability incubated for 72 hrs by cell titer glo assay; type: cell-based; conditions: HepG2, 72 h

Structure (SMILES)	selectivity ratio [1]	pIC50 (HEK-293T)	pIC50 (Plasmodium falciparum [2])	pIC50 (Plasmodium falciparum [3])	selectivity ratio [4]	pIC50 (HepG2)
O=C(NO)c1cnc(N2CCC3(CCN(Cc4cncc5ccccc45)C3)CC2)nc1	37	6.37	8.10	7.94	9	6.99
O=C(NO)c1cnc(N2CCC3(CCN(Cc4ccoc4)C3)CC2)nc1	46	5.79	7.58	7.45	30	5.98
O=C(NO)c1cnc(N2CCC3(CCN(Cc4ccnc5ccccc45)C3)CC2)nc1	24	6.45	7.83	7.84	33	6.32
O=C(NO)c1cnc(N2CCC3(CCN(Cc4ccsc4)C3)CC2)nc1	36	6.08	7.93	7.64	46	5.98
O=C(NO)c1cnc(N2CCC3(CCN(Cc4ccccc4)C3)CC2)nc1	55	6.43	8.12	8.17	32	6.66
Cn1nc(CN2CCC3(CCN(c4ncc(C(=O)NO)cn4)CC3)C2)c2ccccc21	82	6.40	8.31	8.32	29	6.86
O=C(NO)c1cnc(N2CCC3(CCN(Cc4cnc5ccccc5c4)C3)CC2)nc1	26	6.84	8.57	8.26	102	6.25
O=C(NO)c1cnc(N2CCC3(CCN(Cc4ccc5ccc6cccc7ccc4c5c67)C3)CC2)nc1	74	5.71	7.71	7.58	64	5.77
O=C(NO)c1cnc(N2CCC3(CCN(Cc4cnc5ccccn45)C3)CC2)nc1	245	5.45	7.73	7.84	136	5.71
O=C(NO)c1cnc(N2CCC3(CCN(Cc4c5ccccc5cc5ccccc45)C3)CC2)nc1	18	6.41	7.78	7.65	7	6.78
O=C(NO)c1cnc(N2CCC3(CCN(Cc4cccnc4)C3)CC2)nc1	104	5.67	7.75	7.69	90	5.74
O=C(NO)c1cnc(N2CCC3(CCN(Cc4cccc5ccccc45)C3)CC2)nc1	35	6.81	8.17	8.36	21	7.04
O=C(NO)c1cnc(N2CCC3(CCN(Cc4cccc5cccnc45)C3)CC2)nc1	44	6.45	8.47	8.10	28	6.66
O=C(NO)c1cnc(N2CCC3(CCN(Cc4cc5ccccc5c5ccccc45)C3)CC2)nc1	48	6.32	8.07	8.00	20	6.69
O=C(NO)c1cnc(N2CCC3(CCN(CC4CCCCC4)C3)CC2)nc1	122	5.90	7.83	7.99	160	5.79
